These results are taken from patent US20090054720A1, “Use of histone deacetylase inhibitors in combination with radiation for the treatment of cancer” (priority 2002, published 2009).

Where only a bound is given, the exact number is not on record here.

Series [1] has as its system LNCaP spheroids. Briefly: LNCaP spheroid growth (volume monitoring). Format: cell-based, human. To be noted: for growth delay: 5-day incubation, vs untreated. The procedure:
Cell concentrations were determined by counting trypsinized cells with a hemocytometer. […] The entire content of the above references is hereby incorporated by reference.
The medium was inoculated at 6.7×10^4 cells/mL from trypsinized stock cultures. The resulting suspension was used to seed 100 mm plates with approximately 10^6 cells. After an incubation of 5-7 days, spheroids of ˜200 μm diameter were selected under an inverted phase-contrast microscope (Axiophot 2; Carl Zeiss Ltd., Gottingen, Germany) fitted with an ocular scale using an Eppendorf pipette.
TREATMENT PROTOCOLS: After each treatment, spheroids were washed three times by suspension in fresh medium. […] A minimum of 12 spheroids was used for each condition in duplicate experiments.
The antibody was obtained from the laboratory of David Scheinberg, M. D., Ph.D., Memorial Sloan-Kettering Cancer Center.
Following complete treatment, washed spheroids were placed in separate agar-prepared wells of a 24 well plate. Untreated spheroids were washed and separated immediately after initial selection. The medium in each well was replaced, and volume measurements preformed, twice per week. Using the inverted microscope and ocular scale described previously, the major and minor diameter, dmax and dmin respectively, were determined and spheroid volume calculated as V=(⅙)·π·dmax·dmin^2. Volume monitoring was stopped once a spheroid had exceeded the field of view of the microscope or had fragmented into individual cells or multiple smaller cell clusters.
We describe this relationship through the inequality:
avg(V|S=5M, R=6 Gy)<C+{avg(V|S=5 μM, R=0)−C}+{avg(V|S=0, R=6 Gy)−C}
To test for synergy, we computed 2000 bootstrap replicates of the average log AUC, for each of the four groups, and computed the proportion of replicates where the inequality was not obtained. This proportion is termed the achieved significance level (p-value).

Series [2] has as its system LNCaP spheroids. The series is described as follows: TUNEL staining of spheroid sections (apoptosis). Particulars: for TUNEL staining (apoptosis): SAHA alone. It counts as cell-based, human.
Procedure: At 0, 6, 24, or 48 h post treatment spheroids were washed in cold media, fixed for 4 hr in 4% paraformaldehyde, and placed in paraffin blocks. Serial 5-μm sections of the blocks were cut using a microtome and mounted on poly-L-lysine-coated slides that were fixed in ice cold acetone for 10 min.
A final, 2 min incubation in Hematoxylin was used to counterstain sections. Untreated spheroids were used as controls; positive controls were created using DNase I (Boehringer, Ingelheim, Germany). Images were captured digitally from an inverted phase-contrast microscope using a coupled Pixera Professional Camera and associated software (Pixera Visual Communication Suite, Pixera, Los Gatos, Calif.). Images were scored for positive staining as percentage of reactive cells within the spheroid section.
A two-tailed T test was used to test for significant differences in the percentage of positively stained cells.
The subject of series [3] is prostate tumor xenografts. Particulars: nude mice (Butler et al. 2000); cited from earlier work.
The test system of series [4] is LNCaP spheroids. Briefly: Outgrowth assay (colony formation) of spheroids that did not regrow. It counts as cell-based, human. Particulars: 5 μM SAHA 96 h in combination with 6 Gy external beam radiation.
In series [5] the test system is LNCaP monolayer cell culture. Particulars: cited from earlier work.
Setting [6] is: continuous exposure at 5 μM SAHA.

Regarding “Ac225-HuM195: recombinant humanized Anti-CD33 monoclonal antibody which has been radiolabelled with actinium225”, the spheroid growth entry with LNCaP spheroids [1] (100 nCi/mL Ac225-HuM195 for 24 hours alone) was “did not cause growth inhibition”.

As to `O=C(CCCCCCC(=O)Nc1ccccc1)NO` [SAHA, Suberoylanilide hydroxamic acid], the “TUNEL staining (apoptosis)” value in the series on LNCaP spheroids [2] (48 h after the end of SAHA incubation (5 μM, 96 h)) is “apoptotic cells are found throughout the spheroid”; in the series with LNCaP spheroids [2] (immediately after the end of a 96 h SAHA incubation (5 μM)) it was “majority of cells on the spheroid surface have undergone apoptosis”. Besides, the “TUNEL staining pattern compared with SAHA alone” value with LNCaP spheroids [2] (SAHA (5 μM, 96 h) and 6 Gy radiation) is recorded as “almost identical pattern”. Moreover, the “mode of cell death following exposure to SAHA” value in the series on LNCaP spheroids [2] (TUNEL staining and spheroid morphology) is on record as “predominantly by apoptosis”. Moreover, the growth delay in the series with LNCaP spheroids [1] (1.25 μM SAHA) was 4 days; in the series on LNCaP spheroids [1] (2.5 μM SAHA), 7 days; in the series on LNCaP spheroids [1] (5 μM SAHA), 13 days. Besides, the spheroid growth result in the series on LNCaP spheroids [1] (1.25 μM SAHA, 120-hour and continuous exposure) is listed as “delayed but not arrested”; in the series on LNCaP spheroids [1] (2.5 μM SAHA, over the 120 h incubation period), “complete growth arrest”; in the series with LNCaP spheroids [1] (5 μM SAHA 96 h in combination with 6 Gy external beam radiation after 48 h) it was “complete growth inhibition”; in the series on LNCaP spheroids [1] (24 hour exposure to 100 nCi/mL Ac225-HuM195 followed by 96 h incubation with 5 μM SAHA), “complete growth inhibition”; with LNCaP spheroids [1] (continuous exposure at 2.5 μM SAHA) it was “complete growth suppression”. Further, the “statistical analysis of synergy (log AUC of tumor volume curve, bootstrap)” value in the series on LNCaP spheroids [1] (5 μM SAHA 96 h + 6 Gy vs additive model, p<0.01) is given as “synergistic inhibition of tumor growth”. Also, in the series on LNCaP spheroids [1] (5 μM SAHA 120 h in combination with 3 Gy external beam radiation), the “delay in spheroid growth” value was determined as 7 days. Also, the “time of incubation until complete spheroid disruption” value in the series on LNCaP spheroids [1] (5 μM SAHA, continuous incubation) is reported as 13 to 16 days. For the same compound, the median volume reduction with LNCaP spheroids [1] (5 μM SAHA, five days following a 120 hour incubation) is given as 2.4 fold. In addition, the “initial delay of spheroid growth” value with LNCaP spheroids [1] (96 h exposure to 5 μM SAHA alone (Example 5)) worked out at 10 days. In addition, the “spheroid growth after the initial delay” value in the series with LNCaP spheroids [1] (96 h exposure to 5 μM SAHA alone, after a period of 30 days (Example 5)) is listed as “spheroid growth to almost the levels of control untreated spheroid volume”. The “day by which the majority of spheroids disaggregated” value in the series with LNCaP spheroids [1] (setting [6]) was ≤ 20 days. In the series with LNCaP spheroids [1] (setting [6]), the spheroid volume entry is “rapid loss in spheroid volume”. In series [3], the toxicity result was “minimal to no detectable toxicity”. In the series with LNCaP spheroids [4], the “spheroids forming colonies in the outgrowth assay” value is “none of the 12 spheroids forming colonies”. Further, the monolayer cell growth entry in series [5] (2.5 μM SAHA, over a 4-day period (Butler et al. 2000)) is reported as “complete growth suppression with minimal to no cell kill”. Further, in series [5] (5 μM SAHA (Butler et al. 2000)), the monolayer cell kill entry was “progressive cell kill starting after 48 hours”.
